Experimental data as given in ChEMBL document CHEMBL1201862, “PubChem BioAssay data set” (2004).
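96-well plates; 48 h exposure; 5 concentrations. Endpoints by linear interpolation between flanking doses. Not reached: highest tested concentration assigned. At the GI50, growth is halved.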 Calls of active or inactive are those of the source. Cut-off read from the data, not from the text of the source: active = GI50 up to about 1.1 µM and inactive = higher.

Columns and labels:
Experiment in all cases: NCI-60 cell line screen, 48 h
NCI-H522 = tested on: NCI-H522
UO-31 = tested on: UO-31
RPMI-8226 = tested on: RPMI-8226
LOX IMVI = tested on: LOX IMVI
U-251 = tested on: U-251
SR = tested on: SR
KM12 = tested on: KM12
PC-3 = tested on: PC-3
NCI-H226 = tested on: NCI-H226
MDA-N = tested on: MDA-N
SNB-75 = tested on: SNB-75
A549 = tested on: A549
M14 = tested on: M14
SK-MEL-28 = tested on: SK-MEL-28
SW-620 = tested on: SW-620
OVCAR-5 = tested on: OVCAR-5
HCT-116 = tested on: HCT-116
DU-145 = tested on: DU-145
SN12C = tested on: SN12C
IGROV-1 = tested on: IGROV-1
NCI/ADR-RES = tested on: NCI/ADR-RES
HOP-62 = tested on: HOP-62
COLO 205 = tested on: COLO 205
SF-539 = tested on: SF-539
ACHN = tested on: ACHN
SNB-19 = tested on: SNB-19
OVCAR-4 = tested on: OVCAR-4
CCRF-CEM = tested on: CCRF-CEM
EKVX = tested on: EKVX
HCT-15 = tested on: HCT-15
SF-268 = tested on: SF-268
UACC-257 = tested on: UACC-257
MDA-MB-435 = tested on: MDA-MB-435
K562 = tested on: K562
OVCAR-3 = tested on: OVCAR-3
SF-295 = tested on: SF-295
SK-MEL-2 = tested on: SK-MEL-2
786-0 = tested on: 786-0
Hs-578T = tested on: Hs-578T
T47D = tested on: T47D
RXF 393 = tested on: RXF 393
NCI-H23 = tested on: NCI-H23
MCF7 = tested on: MCF7
HOP-92 = tested on: HOP-92
UACC-62 = tested on: UACC-62
HT-29 = tested on: HT-29
HCC 2998 = tested on: HCC 2998
SK-MEL-5 = tested on: SK-MEL-5
MDA-MB-231 = tested on: MDA-MB-231
Malme-3M = tested on: Malme-3M
TK-10 = tested on: TK-10
NCI-H460 = tested on: NCI-H460
CAKI-1 = tested on: CAKI-1
HL-60 = tested on: HL-60
OVCAR-8 = tested on: OVCAR-8
MOLT-4 = tested on: MOLT-4
A498 = tested on: A498
BT-549 = tested on: BT-549
SK-OV-3 = tested on: SK-OV-3

## C[C@H](CCc1nc(C#N)c(N)o1)[C@H]1CC[C@H]2[C@@H]3CCC4C[C@@H](O)CC[C@]4(C)[C@H]3C[C@@H](O)[C@]12C (stereo partly drawn)
NCI-H522
  GI50: 3.65 µM (inactive)
UO-31
  GI50: 4.53 µM (inactive)
RPMI-8226
  GI50: 1.73 µM (inactive)
LOX IMVI
  GI50: 7.71 µM (inactive)
U-251
  GI50: 12.5 µM (inactive)
SR
  GI50: 3.05 µM (inactive)
KM12
  GI50: 10.7 µM (inactive)
PC-3
  GI50: 4.33 µM (inactive)
NCI-H226
  GI50: 8.38 µM (inactive)
MDA-N
  GI50: 13.9 µM (inactive)
SNB-75
  GI50: 10.3 µM (inactive)
A549
  GI50: 5.89 µM (inactive)
M14
  GI50: 15.4 µM (inactive)
SK-MEL-28
  GI50: 13.1 µM (inactive)
SW-620
  GI50: 12.6 µM (inactive)
OVCAR-5
  GI50: 18.6 µM (inactive)
HCT-116
  GI50: 12.7 µM (inactive)
DU-145
  GI50: 14.5 µM (inactive)
SN12C
  GI50: 10.7 µM (inactive)
IGROV-1
  GI50: 6.24 µM (inactive)
NCI/ADR-RES
  GI50: 8.49 µM (inactive)
HOP-62
  GI50: 18.9 µM (inactive)
COLO 205
  GI50: 12.7 µM (inactive)
SF-539
  GI50: 10.2 µM (inactive)
ACHN
  GI50: 14.9 µM (inactive)
SNB-19
  GI50: 16.4 µM (inactive)
OVCAR-4
  GI50: 1.03 µM (active)
CCRF-CEM
  GI50: 143 nM (active)
EKVX
  GI50: 12.9 µM (inactive)
HCT-15
  GI50: 14.7 µM
SF-268
  GI50: 11.3 µM (inactive)
UACC-257
  GI50: 7.73 µM (inactive)
MDA-MB-435
  GI50: 15.1 µM (inactive)
K562
  GI50: 4.46 µM (inactive)
OVCAR-3
  GI50: 11.9 µM (inactive)
SF-295
  GI50: 14.4 µM (inactive)
SK-MEL-2
  GI50: 16.3 µM (inactive)
786-0
  GI50: 10.8 µM (inactive)
Hs-578T
  GI50: 8.55 µM (inactive)
T47D
  GI50: 14.5 µM (inactive)
RXF 393
  GI50: 9.27 µM (inactive)
NCI-H23
  GI50: 17.3 µM (inactive)
MCF7
  GI50: 14.6 µM (inactive)
HOP-92
  GI50: 14.4 µM (inactive)
UACC-62
  GI50: 12.1 µM (inactive)
HT-29
  GI50: 13.5 µM (inactive)
HCC 2998
  GI50: 16.6 µM (inactive)
SK-MEL-5
  GI50: 12.6 µM (inactive)
MDA-MB-231
  GI50: 17.1 µM (inactive)
Malme-3M
  GI50: 14.4 µM (inactive)
TK-10
  GI50: 14.7 µM (inactive)
NCI-H460
  GI50: 14.6 µM (inactive)
CAKI-1
  GI50: 14.4 µM (inactive)
HL-60
  GI50: 475 nM (active)
OVCAR-8
  GI50: 4.56 µM (inactive)
MOLT-4
  GI50: 4.02 µM (inactive)
A498
  GI50: 18.7 µM (inactive)
BT-549
  GI50: 2.65 µM (inactive)
SK-OV-3
  GI50: 14.3 µM (inactive)

## CC(C)(C)c1cc(C(=O)/C=C/c2c(Cl)cccc2Cl)cc(C(C)(C)C)c1O
NCI-H522
  GI50: 5.57 µM (inactive)
UO-31
  GI50: 14.9 µM (inactive)
RPMI-8226
  GI50: 3.8 µM (inactive)
LOX IMVI
  GI50: 13.6 µM (inactive)
U-251
  GI50: 11.9 µM (inactive)
SR
  GI50: 3.86 µM (inactive)
KM12
  GI50: 13.1 µM (inactive)
PC-3
  GI50: 11.4 µM (inactive)
NCI-H226
  GI50: 17.8 µM (inactive)
MDA-N
  GI50: 16.7 µM (inactive)
SNB-75
  GI50: 4.93 µM (inactive)
A549
  GI50: 18.8 µM (inactive)
M14
  GI50: 20.3 µM (inactive)
SK-MEL-28
  GI50: 19.4 µM (inactive)
SW-620
  GI50: 13.3 µM (inactive)
OVCAR-5
  GI50: 19.2 µM (inactive)
HCT-116
  GI50: 8.83 µM (inactive)
DU-145
  GI50: 23 µM (inactive)
SN12C
  GI50: 21 µM (inactive)
IGROV-1
  GI50: 23.4 µM (inactive)
NCI/ADR-RES
  GI50: 20.1 µM (inactive)
HOP-62
  GI50: 20 µM (inactive)
COLO 205
  GI50: 15.9 µM (inactive)
SF-539
  GI50: 16.1 µM (inactive)
ACHN
  GI50: 14.7 µM (inactive)
SNB-19
  GI50: 11.9 µM (inactive)
OVCAR-4
  GI50: 28.7 µM (inactive)
CCRF-CEM
  GI50: 4040 nM (inactive)
EKVX
  GI50: 21.9 µM (inactive)
HCT-15
  GI50: 12.4 µM
SF-268
  GI50: 18.8 µM (inactive)
UACC-257
  GI50: 5.6 µM (inactive)
MDA-MB-435
  GI50: 15.5 µM (inactive)
K562
  GI50: 18.9 µM (inactive)
OVCAR-3
  GI50: 3.79 µM (inactive)
SF-295
  GI50: 11.5 µM (inactive)
SK-MEL-2
  GI50: 11.9 µM (inactive)
786-0
  GI50: 13.1 µM (inactive)
Hs-578T
  GI50: 25.2 µM (inactive)
T47D
  GI50: 4.33 µM (inactive)
RXF 393
  GI50: 2.05 µM (inactive)
NCI-H23
  GI50: 16.1 µM (inactive)
MCF7
  GI50: 8.34 µM (inactive)
HOP-92
  GI50: 25.8 µM (inactive)
UACC-62
  GI50: 12.8 µM (inactive)
HT-29
  GI50: 10.2 µM (inactive)
HCC 2998
  GI50: 14.1 µM (inactive)
SK-MEL-5
  GI50: 11.4 µM (inactive)
MDA-MB-231
  GI50: 10.9 µM (inactive)
Malme-3M
  GI50: 18.6 µM (inactive)
TK-10
  GI50: 19.4 µM (inactive)
NCI-H460
  GI50: 7.46 µM (inactive)
CAKI-1
  GI50: 22.2 µM (inactive)
HL-60
  GI50: 3700 nM (inactive)
OVCAR-8
  GI50: 18.9 µM (inactive)
MOLT-4
  GI50: 6.85 µM (inactive)
A498
  GI50: 27.2 µM (inactive)
BT-549
  GI50: 17.4 µM (inactive)
SK-OV-3
  GI50: 53.5 µM (inactive)
